Earlier results as cited in patent EP0374097A2, “Use of peptide isosteres as retroviral protease inhibitors” (CIBA-GEIGY AG, priority 1988, dated 1990).

Test system: gag-Protease von HIV
Details: stated as known

Pepstatin
Hemmung der gag-Protease von HIV: gehemmt
